# Laboratory results: ChEMBL document CHEMBL3885881, “DrugMatrix”
# Species on record: Rattus norvegicus
# Experiment: DrugMatrix - Regimen: Daily Repeat
# Assay type: toxicity, organism-based, Sprague-Dawley
# Design: regimen Daily Repeat, gender Male, age 6-8 weeks
# Conditions: in vivo, po, route oral GAVAGE, vehicle .5 % CMC; for ABSOLUTE BASOPHIL / ABSOLUTE EOSINOPHIL / ABSOLUTE LYMPHOCYTE / ABSOLUTE MONOCYTE / ABSOLUTE SEGMENTED NEUTROPHIL / BASOPHIL / EOSINOPHIL / ERYTHROCYTE COUNT / HEMATOCRIT / HEMOGLOBIN / LEUKOCYTE COUNT / LYMPHOCYTE / MEAN CORPUSCULAR HEMOGLOBIN / MEAN CORPUSCULAR HEMOGLOBIN CONCENTRATION / MEAN CORPUSCULAR VOLUME / MONOCYTE / NEUTROPHIL / NUCLEATED RED BLOOD CELLS / PLATELET COUNT: tissue Blood; for ALANINE AMINOTRANSFERASE / ALBUMIN / ALKALINE PHOSPHATASE / ASPARTATE AMINOTRANSFERASE / BLOOD UREA NITROGEN / CARBON DIOXIDE / CHLORIDE / CHOLESTEROL / CREATINE PHOSPHOKINASE / CREATININE / GLUCOSE / LACTATE DEHYDROGENASE / LIPASE / PHOSPHORUS / POTASSIUM / SODIUM / TOTAL BILIRUBIN / TOTAL PROTEIN / URIC ACID: tissue Plasma
# [1] = 15 mg/kg, 120 h, dose level Low, time 5 day
# [2] = 710 mg/kg, 72 h, dose level High, time 3 day
# [3] = 710 mg/kg, 120 h, dose level High, time 5 day
compound,measurement,setting,value
CN1C(=O)CN=C(c2ccccc2)c2cc(Cl)ccc21 [DIAZEPAM],ABSOLUTE BASOPHIL,[1],0 CELLS/uL
same,ABSOLUTE EOSINOPHIL,[1],72 CELLS/uL
same,ABSOLUTE LYMPHOCYTE,[1],10533.67 CELLS/uL
same,ABSOLUTE MONOCYTE,[1],40.33 CELLS/uL
same,ABSOLUTE SEGMENTED NEUTROPHIL,[1],587.33 CELLS/uL
same,BASOPHIL,[1],0%
same,EOSINOPHIL,[1],0.67%
same,ERYTHROCYTE COUNT,[1],5.7 x10E6/uL
same,HEMATOCRIT,[1],36.2%
same,HEMOGLOBIN,[1],14.23 G/DL
same,LEUKOCYTE COUNT,[1],11.23 x10E3/uL
same,LYMPHOCYTE,[1],93.67%
same,MEAN CORPUSCULAR HEMOGLOBIN,[1],25.07 pg
same,MEAN CORPUSCULAR HEMOGLOBIN CONCENTRATION,[1],39.37 G/DL
same,MEAN CORPUSCULAR VOLUME,[1],63.67 fL
same,MONOCYTE,[1],0.33%
same,NEUTROPHIL,[1],5.33%
same,NUCLEATED RED BLOOD CELLS,[1],0 /100WBC
same,PLATELET COUNT,[1],1134.33 x10E3/uL
same,ALANINE AMINOTRANSFERASE,[1],51.33 u/L
same,ALBUMIN,[1],4.17 G/DL
same,ALKALINE PHOSPHATASE,[1],404.33 u/L
same,ASPARTATE AMINOTRANSFERASE,[1],80.33 u/L
same,BLOOD UREA NITROGEN,[1],16.33 mg/dL
same,CARBON DIOXIDE,[1],27.67 mmol/L
same,CHLORIDE,[1],101.67 MEQ/L
same,CHOLESTEROL,[1],58.67 mg/dL
same,CREATINE PHOSPHOKINASE,[1],231 u/L
same,CREATININE,[1],0.18 mg/dL
same,GLUCOSE,[1],147.67 mg/dL
same,LACTATE DEHYDROGENASE,[1],117.67 u/L
same,LIPASE,[1],9 u/L
same,PHOSPHORUS,[1],12.13 mg/dL
same,POTASSIUM,[1],7.09 MEQ/L
same,SODIUM,[1],143.97 MEQ/L
same,TOTAL BILIRUBIN,[1],0.23 mg/dL
same,TOTAL PROTEIN,[1],5.93 G/DL
same,URIC ACID,[1],1.43 mg/dL
same,ABSOLUTE BASOPHIL,[2],0 CELLS/uL
same,ABSOLUTE EOSINOPHIL,[2],125.67 CELLS/uL
same,ABSOLUTE LYMPHOCYTE,[2],9703.33 CELLS/uL
same,ABSOLUTE MONOCYTE,[2],42.33 CELLS/uL
same,ABSOLUTE SEGMENTED NEUTROPHIL,[2],1128.67 CELLS/uL
same,BASOPHIL,[2],0%
same,EOSINOPHIL,[2],1%
same,ERYTHROCYTE COUNT,[2],5.78 x10E6/uL
same,HEMATOCRIT,[2],35.37%
same,HEMOGLOBIN,[2],13.83 G/DL
same,LEUKOCYTE COUNT,[2],11 x10E3/uL
same,LYMPHOCYTE,[2],88.33%
same,MEAN CORPUSCULAR HEMOGLOBIN,[2],23.93 pg
same,MEAN CORPUSCULAR HEMOGLOBIN CONCENTRATION,[2],39.1 G/DL
same,MEAN CORPUSCULAR VOLUME,[2],61.17 fL
same,MONOCYTE,[2],0.33%
same,NEUTROPHIL,[2],10.33%
same,NUCLEATED RED BLOOD CELLS,[2],0 /100WBC
same,PLATELET COUNT,[2],1330.67 x10E3/uL
same,ALANINE AMINOTRANSFERASE,[2],69.67 u/L
same,ALBUMIN,[2],4.07 G/DL
same,ALKALINE PHOSPHATASE,[2],240 u/L
same,ASPARTATE AMINOTRANSFERASE,[2],86.67 u/L
same,BLOOD UREA NITROGEN,[2],14 mg/dL
same,CARBON DIOXIDE,[2],33.33 mmol/L
same,CHLORIDE,[2],101.33 MEQ/L
same,CHOLESTEROL,[2],106.33 mg/dL
same,CREATINE PHOSPHOKINASE,[2],222 u/L
same,CREATININE,[2],0.21 mg/dL
same,GLUCOSE,[2],159 mg/dL
same,LACTATE DEHYDROGENASE,[2],204.67 u/L
same,LIPASE,[2],10.67 u/L
same,PHOSPHORUS,[2],12.7 mg/dL
same,POTASSIUM,[2],6.45 MEQ/L
same,SODIUM,[2],143.1 MEQ/L
same,TOTAL BILIRUBIN,[2],0.2 mg/dL
same,TOTAL PROTEIN,[2],5.53 G/DL
same,URIC ACID,[2],1.27 mg/dL
same,ABSOLUTE BASOPHIL,[3],0 CELLS/uL
same,ABSOLUTE EOSINOPHIL,[3],31.67 CELLS/uL
same,ABSOLUTE LYMPHOCYTE,[3],10193.33 CELLS/uL
same,ABSOLUTE MONOCYTE,[3],269 CELLS/uL
same,ABSOLUTE SEGMENTED NEUTROPHIL,[3],1672.67 CELLS/uL
same,BASOPHIL,[3],0%
same,EOSINOPHIL,[3],0.33%
same,ERYTHROCYTE COUNT,[3],5.59 x10E6/uL
same,HEMATOCRIT,[3],34.87%
same,HEMOGLOBIN,[3],13.8 G/DL
same,LEUKOCYTE COUNT,[3],12.17 x10E3/uL
same,LYMPHOCYTE,[3],84%
same,MEAN CORPUSCULAR HEMOGLOBIN,[3],24.77 pg
same,MEAN CORPUSCULAR HEMOGLOBIN CONCENTRATION,[3],39.6 G/DL
same,MEAN CORPUSCULAR VOLUME,[3],62.47 fL
same,MONOCYTE,[3],2.33%
same,NEUTROPHIL,[3],13.33%
same,NUCLEATED RED BLOOD CELLS,[3],0 /100WBC
same,PLATELET COUNT,[3],1299.67 x10E3/uL
same,ALANINE AMINOTRANSFERASE,[3],81.67 u/L
same,ALBUMIN,[3],3.93 G/DL
same,ALKALINE PHOSPHATASE,[3],319.33 u/L
same,ASPARTATE AMINOTRANSFERASE,[3],104.67 u/L
same,BLOOD UREA NITROGEN,[3],13.67 mg/dL
same,CARBON DIOXIDE,[3],25.33 mmol/L
same,CHLORIDE,[3],101 MEQ/L
same,CHOLESTEROL,[3],119.67 mg/dL
same,CREATINE PHOSPHOKINASE,[3],535.33 u/L
same,CREATININE,[3],0.16 mg/dL
same,GLUCOSE,[3],133.33 mg/dL
same,LACTATE DEHYDROGENASE,[3],507 u/L
same,LIPASE,[3],11.33 u/L
same,PHOSPHORUS,[3],11.5 mg/dL
same,POTASSIUM,[3],5.38 MEQ/L
same,SODIUM,[3],142.53 MEQ/L
same,TOTAL BILIRUBIN,[3],0.13 mg/dL
same,TOTAL PROTEIN,[3],5.7 G/DL
same,URIC ACID,[3],1.23 mg/dL
